How the values were obtained:
[1] = system: SK-N-SH cells; test: Cytotoxicity assay (MTS) in SK-N-SH cells; format: cell-based; conditions: 3 days
Protocol: Cytotoxic effect of formononetin on Vero or SK-N-SH cells was assayed by MTS (promega) assay. Briefly, cells (3 × 10^4 cells/well) were seeded into 96-well culture plates and were incubated overnight. Then, the medium was removed and different concentrations of formononetin were applied in triplicate. After 3 days’ incubation, the cytotoxicity of formononetin was determined by MTS assay. The TC50 was defined as the concentration that inhibits 50% cellular growth in comparison with the controls and the TC0 was defined as the maximal non-toxicity dose.

[2] = system: EV71 strain H; test: CPE inhibition assay, EV71 strain H in Vero cells; format: cell-based, enterovirus 71; conditions: Enterovirus A
Protocol: The anti-EV71 activity of formononetin was assayed by CPE inhibition method. Briefly, cells (3 × 10^4 cells/well) were plated into 96-well culture plates for incubation of 24 h. The medium was then removed and cells were infected with EV71 of 80 pfu/well. Then, various concentrations of formononetin were supplemented for incubation of another 48 h. The IC50 defined as the minimal concentration of inhibitor required to inhibit 50% of CPE was determined by Reed & Muench method. The selectivity index (SI) was calculated as the ratio of TC50/IC50 [19].

[3] = system: EV71 SHZH98 strain; test: CPE inhibition assay for anti-EV71 in Vero cells; format: cell-based, enterovirus 71; conditions: Enterovirus A, 48 h
Protocol: (§1) The anti-EV71 activity of formononetin was assayed by CPE inhibition method. Briefly, cells (3 × 10^4 cells/well) were plated into 96-well culture plates for incubation of 24 h. The medium was then removed and cells were infected with EV71 of 80 pfu/well. Then, various concentrations of formononetin were supplemented for incubation of another 48 h. […] The selectivity index (SI) was calculated as the ratio of TC50/IC50 [19].

[4] = system: COX-2; test: Western blot of EV71-induced COX-2 expression in SK-N-SH cells; format: cell-based; conditions: formononetin 14.91 μmol/L, pirodavir 1.08 μmol/L, 24 h
Protocol: Figure 4 Formononetin could inhibit EV71-induced COX-2 expression and PGE 2 production. (A) Formononetin but not pirodavir can reduce the expression of COX-2 induced by EV71 infection. SK-N-SH cells were mock-infected or infected with 480 pfu/well of EV71 (SHZH98) for 2 h. The cells were then treated with formononetin (14.91 μmol/L) and pirodavir (1.08 μmol/L), respectively, for 24 h. The cells were harvested and EV71-VP1 and COX-2 were examined by western blot. (B) Formononetin but not pirodavir can reduce the release of PGE2 stimulated by EV71 infection. SK-N-SH cells were pretreated with formononetin (14.91 μmol/L) or pirodavir (1.08 μmol/L) for 24 h. The cells were infected with 4.8 × 10^5 pfu/well of EV71 (SHZH98). At 24 h p.i., the culture supernatants were harvested for PGE2 release assay. Cells were lysed in the M-PER mammalian protein extraction reagent (Thermo, Rockford, IL) containing halt protease inhibitor single-use cocktail (Thermo). The protein concentration was determined by the BCA reagents (Thermo). About 10 μg proteins were denatured and applied to sodium dodecyl sulfate-polyacrylamide gel electrophoresis (SDS-PAGE). The electrophoresis products were transferred to a polyvinyl idenefluoride (PVDF) film and PVDF membranes were then incubated at room temperature with specific primary antibody. […]

[5] = system: EV71 SHZH98 strain; test: CPE inhibition assay for anti-EV71 in SK-N-SH cells; format: cell-based, enterovirus 71; conditions: Enterovirus A, 48 h
Protocol: as §1

[6] = system: p38; test: Western blot of EV71-induced phosphorylation of p38 in SK-N-SH cells; format: cell-based; conditions: pretreatment 24 h, formononetin 14.91 μmol/L, pirodavir 1.08 μmol/L, EV71 10 min
Protocol: (§2) Figure 3 Formononetin but not pirodavir reduces the phosphorylation of ERK (A), p38 (B), and JNK (C) induced by EV71 infection. SK-N-SH cells (9 × 10^5 cells/well) were plated into 6-well culture plates. The cells were then pretreated with formononetin (14.91 μmol/L) and pirodavir (1.08 μmol/L), respectively. After 24 h, the cells were mock-infected or infected with 4.8 × 10^5 pfu/well of EV71 (SHZH98) for 15 min (A), 10 min (B), and 30 min (C), respectively. The cells were harvested and ERK (A) p-ERK (A), p38 (B), p-p38 (B), JNK (C), and p-JNK (C) were detected by western blot.
(§3) Cells were lysed in the M-PER mammalian protein extraction reagent (Thermo, Rockford, IL) containing halt protease inhibitor single-use cocktail (Thermo). The protein concentration was determined by the BCA reagents (Thermo). About 10 μg proteins were denatured and applied to sodium dodecyl sulfate-polyacrylamide gel electrophoresis (SDS-PAGE). The electrophoresis products were transferred to a polyvinyl idenefluoride (PVDF) film and PVDF membranes were then incubated at room temperature with specific primary antibody. After a standard washing, membranes were incubated with horse radish peroxidase (HRP)-labeled secondary antibody. The assay developed using a chemiluminescent substrate. […]

[7] = system: JNK; test: Western blot of EV71-induced phosphorylation of JNK in SK-N-SH cells; format: cell-based; conditions: pretreatment 24 h, formononetin 14.91 μmol/L, pirodavir 1.08 μmol/L, EV71 30 min
Protocol: as §2, §3

[8] = system: EV71 VP1 protein; test: Western blot of EV71 VP1 protein in SK-N-SH cells; format: cell-based, enterovirus 71; conditions: EV71 SHZH98 infected SK-N-SH cells
Source text: Figure 2 The antiviral effect of formononetin and pirodavir against EV71 in SK-N-SH cells. (A) Formononetin and pirodavir reduced the expression of EV71 VP1 protein in SK-N-SH cells by western blot assay. (B) Formononetin and pirodavir reduced the expression of EV71 VP1 protein in SK-N-SH cells by immunofluorescence assay. Cells were examined using a fluorescence microscopy (×100). (C) Formononetin and pirodavir reduced the expression of EV71 VP1 RNA by one-step qRT-PCR assay. *P < 0.001 ^# P < 0.05.
as §3

| SMILES | TC0 (maximal non-toxicity dose) [1] [µmol/L] | TC50 (50% toxicity concentration) [1] [µM] | TC0 (maximal non-toxicity dose) ([1]; listed as formononetin) [µmol/L] | TC50 (50% toxicity concentration) ([1]; listed as formononetin) [µM] | IC50 [2] [µM] | IC50 [3] [µM] | EV71-stimulated COX-2 expression [4] | IC50 [5] [µM] | EV71-stimulated phosphorylation of p38 [6] | EV71-stimulated phosphorylation of JNK [7] | Expression of EV71 VP1 protein (western blot) [8] |
| --- | --- | --- | --- | --- | --- | --- | --- | --- | --- | --- | --- |
| COc1ccc(-c2coc3cc(O)ccc3c2=O)cc1 [Formononetin] | 55.92 ± 0 | 198.80 ± 6.02 | 55.92 | 198.80 | 11.1 ± 9.23 | 3.45 ± 0.55 | inhibited | 3.98 ± 0.8 | significantly attenuated | significantly attenuated | decrease the expression of VP1 protein in a dose dependent manner |
| CCOC(=O)c1ccc(OCCC2CCN(c3ccc(C)nn3)CC2)cc1 [Pirodavir, reference compound] |  |  |  |  |  | 0.38 ± 0.08 | not | 0.23 ± 0.04 | not | not | decrease |

Source: publication PMC4351682, “Formononetin inhibits enterovirus 71 replication by regulating COX- 2/PGE2 expression” (Virology Journal, 2015)
